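Interpolation was linear, between the two tested concentrations surrounding the appropriate level; five concentrations were tested over 48 hours in 96-well plates. The concentration for 50% growth inhibition is given as GI50. TGI: total growth inhibition.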
What was measured:
Test in all cases: DTP human tumour cell line panel, 48 h
[1] = test system: 786-0 renal
[2] = test system: A498 renal
[3] = test system: A549 NSCLC
[4] = test system: ACHN renal
[5] = test system: BT-549 breast
[6] = test system: CAKI-1 renal
[7] = test system: CCRF-CEM leukemia
[8] = test system: COLO 205 colon
[9] = test system: DU-145 prostate
[10] = test system: EKVX NSCLC
[11] = test system: HCC-2998 colon
[12] = test system: HCT-116 colon
[13] = test system: HCT-15 colon
[14] = test system: HL-60(TB) leukemia
[15] = test system: HOP-62 NSCLC
[16] = test system: HOP-92 NSCLC
[17] = test system: HS 578T breast
[18] = test system: HT29 colon
[19] = test system: IGROV1 ovarian
[20] = test system: K-562 leukemia
[21] = test system: KM12 colon
[22] = test system: LOX IMVI melanoma
[23] = test system: M14 melanoma
[24] = test system: MALME-3M melanoma
[25] = test system: MCF7 breast
[26] = test system: MDA-MB-231 breast
[27] = test system: MDA-MB-435
[28] = test system: MDA-MB-468 breast
[29] = test system: MOLT-4 leukemia
[30] = test system: NCI-H226 lung
[31] = test system: NCI-H23 lung
[32] = test system: NCI-H460 lung
[33] = test system: NCI-H522 lung
[34] = test system: OVCAR-3 ovarian
[35] = test system: OVCAR-4 ovarian
[36] = test system: OVCAR-5 ovarian
[37] = test system: OVCAR-8 ovarian
[38] = test system: PC-3 prostate
[39] = test system: RPMI-8226 leukemia
[40] = test system: RXF 393 renal
[41] = test system: SF-268 CNS
[42] = test system: SF-295 CNS
[43] = test system: SF-539 CNS
[44] = test system: SK-MEL-2 melanoma
[45] = test system: SK-MEL-28 melanoma
[46] = test system: SK-MEL-5 melanoma
[47] = test system: SK-OV-3 ovarian
[48] = test system: SN12C renal
[49] = test system: SNB-19 CNS
[50] = test system: SNB-75 CNS
[51] = test system: SR leukemia
[52] = test system: SW-620 colon
[53] = test system: T-47D breast
[54] = test system: TK-10 renal
[55] = test system: U251 CNS
[56] = test system: UACC-257 melanoma
[57] = test system: UACC-62 melanoma
[58] = test system: UO-31 renal

Compound: CC(=O)Oc1ccccc1C(=O)NC([Se])=NC1CCCCC1
- GI50 [1]: 1.72 µM
- TGI [1]: 3.28 µM
- GI50 [2]: 2.41 µM
- TGI [2]: 7.58 µM
- GI50 [3]: 3.3 µM
- TGI [3]: 23 µM
- GI50 [4]: 9.75 µM
- TGI [4]: 25.8 µM
- GI50 [5]: 3.3 µM
- TGI [5]: 11.3 µM
- GI50 [6]: 3.07 µM
- TGI [6]: 11.5 µM
- GI50 [7]: 5.25 µM
- TGI [7]: 29.4 µM
- GI50 [8]: 17.1 µM
- TGI [8]: 31.4 µM
- GI50 [9]: 3.22 µM
- TGI [9]: 10.2 µM
- GI50 [10]: 2.12 µM
- TGI [10]: 4.93 µM
- GI50 [11]: 2.28 µM
- TGI [11]: 5.11 µM
- GI50 [12]: 3.18 µM
- TGI [12]: 12.6 µM
- GI50 [13]: 3.43 µM
- TGI [13]: 11.6 µM
- GI50 [14]: 18.2 µM
- TGI [14]: > 100 µM
- GI50 [15]: 3.35 µM
- TGI [15]: 13.4 µM
- GI50 [16]: 2.34 µM
- TGI [16]: 6.52 µM
- GI50 [17]: 2.67 µM
- TGI [17]: 9.16 µM
- GI50 [18]: 4.87 µM
- TGI [18]: 28.7 µM
- GI50 [19]: 2.02 µM
- TGI [19]: 3.98 µM
- GI50 [20]: 26.1 µM
- TGI [20]: > 100 µM
- GI50 [21]: 3.42 µM
- TGI [21]: 11.7 µM
- GI50 [22]: 1.96 µM
- TGI [22]: 4.26 µM
- GI50 [23]: 2.43 µM
- TGI [23]: 5.7 µM
- GI50 [24]: 16.7 µM
- TGI [24]: 30.3 µM
- GI50 [25]: 2.24 µM
- TGI [25]: 6.8 µM
- GI50 [26]: 1.96 µM
- TGI [26]: 3.77 µM
- GI50 [27]: 7.88 µM
- TGI [27]: 20.9 µM
- GI50 [28]: 7.37 µM
- TGI [28]: 20.7 µM
- GI50 [29]: 10.8 µM
- TGI [29]: 98.8 µM
- GI50 [30]: 2.56 µM
- TGI [30]: 9.46 µM
- GI50 [31]: 2.24 µM
- TGI [31]: 5.35 µM
- GI50 [32]: 2.62 µM
- TGI [32]: 7.24 µM
- GI50 [33]: 15.6 µM
- TGI [33]: 30 µM
- GI50 [34]: 12.4 µM
- TGI [34]: 25.9 µM
- GI50 [35]: 4.35 µM
- TGI [35]: 16.9 µM
- GI50 [36]: 2.07 µM
- TGI [36]: 5.15 µM
- GI50 [37]: 1.95 µM
- TGI [37]: 3.73 µM
- GI50 [38]: 2.63 µM
- TGI [38]: 8.24 µM
- GI50 [39]: 2.63 µM
- TGI [39]: 7.61 µM
- GI50 [40]: 1.65 µM
- TGI [40]: 3.34 µM
- GI50 [41]: 13.7 µM
- TGI [41]: 31.2 µM
- GI50 [42]: 2.24 µM
- TGI [42]: 5.08 µM
- GI50 [43]: 1.84 µM
- TGI [43]: 3.46 µM
- GI50 [44]: 2.35 µM
- TGI [44]: 5.29 µM
- GI50 [45]: 3.59 µM
- TGI [45]: 13.1 µM
- GI50 [46]: 1.63 µM
- TGI [46]: 3.07 µM
- GI50 [47]: 2.84 µM
- TGI [47]: 7.5 µM
- GI50 [48]: 1.99 µM
- TGI [48]: 4.41 µM
- GI50 [49]: 3.28 µM
- TGI [49]: 11.7 µM
- GI50 [50]: 1.71 µM
- TGI [50]: 5.87 µM
- GI50 [51]: 3.11 µM
- TGI [51]: 14.4 µM
- GI50 [52]: 10.2 µM
- TGI [52]: 23.6 µM
- GI50 [53]: 12.5 µM
- TGI [53]: 30.2 µM
- GI50 [54]: 12.1 µM
- TGI [54]: 24.7 µM
- GI50 [55]: 2.35 µM
- TGI [55]: 6.24 µM
- GI50 [56]: 2.93 µM
- TGI [56]: 10.2 µM
- GI50 [57]: 1.79 µM
- TGI [57]: 3.89 µM
- GI50 [58]: 1.62 µM
- TGI [58]: 3.03 µM

From PubChem BioAssay (NCI)
